# Experimental data published in patent publication US20210183469A9, “COMPUTATIONAL PLATFORM FOR IN SILICO COMBINATORIAL SEQUENCE SPACE EXPLORATION AND ARTIFICIAL EVOLUTION OF PEPTIDES” (priority 2018, published 2021).
# No end group written: not given here.
# Assays:
# human erythrocytes = test: Hemolytic assay; conditions: 1 h at 37° C., 100% of hemolysis was not observed
# Procedure: (§2) Fresh human venous blood was collected from volunteers in Vacutainer collection tubes containing sodium heparin as an anticoagulant (BD Biosciences, Franklin Lakes, N.J.). The blood was centrifuged at 1500 rpm and the serum was removed and the blood cells were replaced and washed 3 times with the same volume of sterile NaCl 0.85% solution. Concentrated red blood cells were diluted tenfold in NaCl 0.85% solution and then exposed at two-fold dilutions of peptides for 1 h at 37° C., at identical concentrations used for antimicrobial assays, in the ratio of 1:1 (v/v), achieving a final volume of 100 uL. The assay was carried out in 96-well polypropylene microtiter plates. The positive control wells contained 1% of Triton X-100, representing 100% cell lysis, and negative control wells contained sterile saline. Hemoglobin release was monitored chromogenically at 546 nm using a microplate reader.
# E. coli ATCC 25922 = test: SYTOX Green uptake assay (cytoplasmic membrane permeabilization); type: cell-based, Escherichia coli; conditions: 5 μM, positive control
# Procedure: The guavanin 2-induced permeabilization of the bacterial cytoplasmic plasma membrane of E. coli ATCC 25922 was determined by fluorometric measurement of SYTOX green (SG) influx (Thevissen et al., Appl. Environ. Microbiol. 1999 December; 65(12): 5451-8). SG is a high-affinity nucleic acid dye that is impermeant to live cells. When the cell membrane is damaged, this dye penetrates into the cell and binds to intracellular DNA, leading to an increase in fluorescence. For SG uptake assay, exponentially growing bacteria (6×10^5 CFU·mL^−1) were re-suspended in PBS after centrifugation (1000×g, 10 min, 4° C.) and washing steps. 792 μL of the bacterial suspension was pre-incubated with 8 μL of 100 μM SG during 30 min at 37° C. in the dark. […] Three independent experiments were performed and results correspond to a representative experiment with negative (PBS) and positive (melittin) controls.
# E. coli (ATCC 25922) = test: Membrane polarization assay with DiSC3(5); type: cell-based, Escherichia coli; conditions: melittin positive control
# Procedure: When the cytoplasmic membrane is intact, the fluorescent probe DiSC3(5) accumulates into the cytoplasmic membrane and then aggregates, causing self-quenching of the fluorescence. In the presence of a membrane-depolarizing agent, DiSC3(5) is released into the medium, leading to an increase in fluorescence that can be monitored over time. The experiment was performed as previously described (André et al., ACS Chem. Biol. 2015 Jul. 30; 10(10): 2257-66). Briefly, exponentially growing bacteria were centrifuged (1000×g, 10 min, 4° C.), washed with PBS and re-suspended in the same buffer to an A630 of 0.1; then 700 µL of bacteria were pre-incubated with 1 μM DiSC3(5) in the dark during 10 min at 37° C., and then 100 μL of 1 mM KCl were added in order to equilibrate the cytoplasmic and external K+ concentrations. […] Three independent experiments were performed and results correspond to a representative experiment with negative (PBS) and positive (melittin) controls.
# [1] = test system: bioluminescent engineered P. aeruginosa strain H1001; test: Antimicrobial activity by bioluminescence assay (SPOT-synthesized peptides); type: cell-based, Pseudomonas aeruginosa; conditions: SPOT-synthesized unpurified crude peptide (~70% purity)
# Procedure: A peptide array composed of 20 peptides (15 guavanins, 4 Pg-AMP1 fragments and magainin 2) was designed and synthesized by Kinexus Bioinformatics Corporation (Vancouver, BC). Peptides were produced in a standard mass of 80 μg by using cellulose support in SPOT technology, as previously described by Winkler et al. Methods Mol. Biol. 2009; 570: 157-74. The crude synthetic peptides were obtained from cellulose membrane discs that had already been treated with ammonia gas to release the peptides from the membrane. Peptides were then dissolved overnight in distilled water and subsequently evaluated for their biological activities, as described below.
# The antimicrobial activity of the synthesized peptides was evaluated against an engineered luminescent Pseudomonas aeruginosa H1001 strain in 96-well microplates, as described previously with a few modifications (Hilpert & Hancock, Nat. Protoc. 2007; 2(7): 1652-60). […] Luminescence was measured on a Tecan […]luor Plus Microplate Reader (Tecan US, Morrisville, N.C.). The antimicrobial activity was evaluated by the ability of the peptides to reduce the luminescence of P. aeruginosa-lux strain compared to untreated cells. […]
# [2] = test system: Listeria ivanovii Li4pVS2
# Procedure: Staphylococcus aureus ATCC 25923, Enterococcus faecalis ATCC 29212, Escherichia coli ATCC 25922, Pseudomonas aeruginosa ATCC 27853, Acinetobacter baumannii ATCC 19606 and Klebsiella pneumoniae ATCC 13883 were cultured in Lysogeny Broth (LB). The bacteria Streptococcus pyogenes ATCC 19615 and Listeria ivanovii Li 4pVS2 were cultured in Brain Heart Infusion (BHI) broth, whereas Candida species (C. albicans ATCC 90028 and C. parapsilosis ATCC 22019) were cultured in Yeast Peptone Dextrose (YPD) medium. Logarithmic phase culture of bacteria and yeasts were centrifuged and suspended in MH (Mueller Hinton) broth to an A630 of 0.01 (˜10^6 CFU·mL^−1), except for S. pyogenes, L. ivanovii and E. faecalis that were suspended in their respective growth medium. […] After 18 h incubation at 37° C. (30° C. for yeasts), the antimicrobial susceptibility was monitored by measuring the change in A630 using a microplate reader (UVM 340, Asys Hitech). […] Each experiment was performed in triplicate with positive (0.7% formaldehyde) and negative (without peptide) inhibition controls.
# HEK-293 cells = test: Cytotoxicity, MTT-based microassay; type: cell-based, human; conditions: 72 h, read-out: Active Concentration (inhibitory concentration 50, IC50)
# Procedure: HEK-293 cells were cultured in DMEM medium, and incubated at 37° C. in a humidified atmosphere of 5% CO2. Cell viability was quantified after peptide incubation using a methylthiazolyldiphenyl-tetrazolium bromide (MTT)-based microassay (Riss et al., (eds. Sittampalam, G. et al.) (Bethesda (Md.), 2004)). […] Then, 10 μl of MTT (5 mg·mL^−1 in PBS) was added to each well and the cells were further incubated for 4 h in the dark. The formazan crystals formed by mitochondrial reductases in intact cells are insoluble in aqueous solutions and precipitate. Formazan crystals were dissolved using a solubilization solution (40% dimethylformamide in 2% glacial acetic acid, 16% sodium dodecyl sulfate, pH 4.7) followed by 1 h incubation at 37° C. under shaking (150 rpm). Finally, the absorbance of the resuspended formazan was measured at 570 nm. Data were analyzed with GraphPad Prism® 5.0 software to determine the inhibitory concentration 50 (IC50), which corresponds to the peptide concentration producing 50% cell death. Results were expressed as the mean of three independent experiments performed in triplicate.
# [3] = test system: Escherichia coli ATCC 25922; test: MIC, two-fold serial dilution in microtitre plates; type: cell-based; conditions: average of three independent experiments
# Procedure: (§1) After 18 h incubation at 37° C.
# [4] = test system: Acinetobacter baumannii ATCC 19606; test: MIC, two-fold serial dilution in microtitre plates; type: cell-based
# Procedure: as §1
# in vitro = conditions: human
# Procedure: as §2
Compound,Hemolysis (human erythrocytes) [µg/mL],further results
N=C(N)NCCC[C@H](NC(=O)CNC(=O)[C@H](CO)NC(=O)CNC(=O)[C@H](Cc1ccc(O)cc1)NC(=O)CNC(=O)CNC(=O)CNC(=O)[C@H](Cc1ccc(O)cc1)NC(=O)[C@H](CCCNC(=N)N)NC(=O)CNC(=O)CNC(=O)CNC(=O)[C@H](Cc1ccc(O)cc1)NC(=O)CNC(=O)CNC(=O)[C@H](Cc1ccc(O)cc1)NC(=O)CNC(=O)[C@@H](N)Cc1ccc(O)cc1)C(=O)NCC(N)=O [Fragment 3],>200,–
CC[C@H](C)[C@H](NC(=O)CN)C(=O)NCC(=O)N[C@@H](C)C(=O)N[C@H](C(=O)N[C@@H](CC(C)C)C(=O)N[C@@H](CCCCN)C(=O)N[C@H](C(=O)N[C@@H](CC(C)C)C(=O)N[C@H](C(=O)N[C@H](C(=O)NCC(=O)N[C@@H](CC(C)C)C(=O)N1CCC[C@H]1C(=O)N[C@@H](C)C(=O)N[C@@H](CC(C)C)C(=O)N[C@H](C(=O)N[C@@H](CO)C(=O)N[C@@H](Cc1c[nH]c2ccccc12)C(=O)N[C@H](C(=O)N[C@@H](CCCCN)C(=O)N[C@@H](CCCNC(=N)N)C(=O)N[C@@H](CCCCN)C(=O)N[C@@H](CCCNC(=N)N)C(=O)N[C@@H](CCC(N)=O)C(=O)N[C@@H](CCC(N)=O)C(N)=O)[C@@H](C)CC)[C@@H](C)CC)[C@@H](C)O)[C@@H](C)O)C(C)C)C(C)C [melittin],–,SYTOX Green (SG) fluorescence signal (E. coli ATCC 25922): rapid and maximal SG fluorescence signal; DiSC3(5) fluorescence (membrane potential) (E. coli (ATCC 25922)): rapid increase in the fluorescence signal
GQPVGQGVERSHDDNRNQPR-NH2 [Fragment 4],>200,–
"H-GIGKFLHSAKKFGKAFVGEIMNS-OH [Magainin 2, reference compound]",>200,MIC [1]: 100 µg/mL
RAYMEALRQAERLGNRTARR-NH2 [Guavanin 9],>200,–
RKLMELYEQAIRYGKRSYRR-NH2 [Guavanin 12],>200,–
RKLMEMYEEAFRYFNRISRR-NH2 [Guavanin 5],>200,–
RKLVECYERAERDANRSGRR-NH2 [Guavanin 15],>200,–
RKYMRQYEEAIRDGNRSIRR-NH2 [Guavanin 3],>200,–
RQIYESIEQALRRGYRSYRR-NH2 [Guavanin 7],>200,–
RQLMELIEQAERYGNRFYRR-NH2 [Guavanin 11],>200,–
RQYMRQIEQALRYGYRISRR-NH2 [Guavanin 2],>200,Active Concentration (MIC) [2]: 50 µM; IC50 (HEK-293 cells): > 200 µM; Active Concentration (MIC) [3]: 6.25 µM; Active Concentration (MIC) [4]: 6.25 µM; CC50 at 1 h (in vitro): > 200 µM
RQYMRYLEQAERYVNRNLRR-NH2 [Guavanin 4],>200,–
RRGMKQYERISRDANRSYRR-NH2 [Guavanin 1],>200,–
RRYMECYEQAERYFRRFGRR-NH2 [Guavanin 13],>200,–
RSFMKCYEQASRYGNRILRR-NH2 [Guavanin 14],>200,–
RSIMELYKQASRSFNRGIRR-NH2 [Guavanin 6],>200,–
RSYYEAYERALRKGQRGIRR-NH2 [Guavanin 8],>200,–
RYGYGGYGGGRYGGGYGSGR-NH2 [Fragment 2],100,Hemolysis (human erythrocytes; listed as 2nd fragment): hemolytic
RYLMEYAEQAKRDAKRAYRR-NH2 [Guavanin 10],>200,–
SSRMECYEQAERYGYGGYGG-NH2 [Fragment 1],>200,–
